Source: patent US9139567B2, “Arylpyrazole ethers as inhibitors of leukotriene A4 hydrolase” (Boehringer Ingelheim International GmbH, priority 2011, dated 2015)

Columns and labels:
human LTA4 hydrolase = target: T1, human LTA4 hydrolase (Homo sapiens, UniProt P09960); assay: LTA4H enzyme assay (cleavage of Arg-AMC, fluorescence); assay type: biochemical; settings: LTA4H enzyme 1 nM, Arg-AMC substrate 50 μM, room temperature 1 h
T1 sequence (P09960 1-611): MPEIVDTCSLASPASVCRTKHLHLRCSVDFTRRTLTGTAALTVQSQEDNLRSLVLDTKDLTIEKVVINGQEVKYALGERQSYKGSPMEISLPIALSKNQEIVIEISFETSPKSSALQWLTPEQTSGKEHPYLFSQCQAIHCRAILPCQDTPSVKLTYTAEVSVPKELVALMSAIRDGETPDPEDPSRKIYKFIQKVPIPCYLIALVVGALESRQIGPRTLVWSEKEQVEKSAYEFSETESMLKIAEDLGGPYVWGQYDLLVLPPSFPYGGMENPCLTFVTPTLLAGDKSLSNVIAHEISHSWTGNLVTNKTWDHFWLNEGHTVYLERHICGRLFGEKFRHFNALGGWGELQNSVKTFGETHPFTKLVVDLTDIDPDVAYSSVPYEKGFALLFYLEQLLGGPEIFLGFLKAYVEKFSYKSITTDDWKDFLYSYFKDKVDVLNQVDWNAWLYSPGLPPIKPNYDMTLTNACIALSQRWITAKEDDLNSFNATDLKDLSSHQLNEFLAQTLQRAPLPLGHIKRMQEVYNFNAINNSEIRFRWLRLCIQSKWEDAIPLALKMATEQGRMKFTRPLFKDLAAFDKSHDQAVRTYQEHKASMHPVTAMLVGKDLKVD
Description: Compounds are assessed for the ability to interact with human LTA4 hydrolase in an enzymatic assay that measures the ability of the enzyme to cleave the peptide bond of arginyl-aminomethylcoumarin (Arg-AMC). LTA4H Enzyme (1 nM final), Arg-AMC substrate (50 μM final), and compound are combined in a reaction buffer (50 mM Tris-HCl (pH 7.5), 100 mM KCl, 0.5% bovine serum albumin) at room temperature for 1 h. The formation of product is assessed by measuring the fluorescence of aminomethylcoumarin product (excitation wavelength 380 nm/emission wavelength 460 nm).

[1] = system: LTB4 production in human whole blood; assay: LTB4 production inhibition assay in human whole blood (calcimycin-stimulated); assay type: cell-based; settings: heparinized human whole blood, 15 min 37° C., calcimycin 20 μM 30 min, plasma LTB4 by HTRF
Description: Compounds of the invention are additionally tested in a human whole blood assay to determine their ability to inhibit the synthesis of LTB4 in a cellular system. Compounds are combined with heparinized human whole blood and incubated for 15 minutes at 37° C. Calcimycin (20 μM final, prepared in phosphate-buffered saline, pH 7.4) is then added and the mixture is incubated for another 30 minutes at 37° C. The samples are centrifuged for 5 min at low speed (1500×g) and the plasma layer is removed. Plasma LTB4 concentrations are then measured using an antibody-based homogenous time-resolved fluorescence method (CisBio, Bedford, Mass.).

SMILES | IC50 (human LTA4 hydrolase) [nM] | IC50 [1] [nM]
CS(=O)(=O)c1ccc(COc2ccc(Oc3ccc(-c4ccn[nH]4)cc3)cc2)cc1 [Example 37, 5-[4-(4-{[4-(methylsulfonyl)benzyl]oxy}phenoxy)phenyl]-1H-pyrazole] | 3.5 | 2090
c1cc(-c2ccc(Oc3ccc(OCc4cscn4)cc3)cc2)[nH]n1 [Example 38, 4-{4-[4-(2H-Pyrazol-3-yl)-phenoxy]-phenoxymethyl}-thiazole] | 3.3 | ≥ 5000
c1cc(CCOc2ccc(Oc3ccc(-c4ccn[nH]4)cc3)cc2)ccn1 [Example 40, 4-(2-{4-[4-(1H-pyrazol-5-yl)phenoxy]phenoxy}ethyl)pyridine] | 3.2 | 3120
c1cnc(COc2ccc(Oc3ccc(-c4ccn[nH]4)cc3)cc2)cn1 [Example 44, 2-({4-[4-(1H-pyrazol-5-yl)phenoxy]phenoxy}methyl)pyrazine] | 1.1 | 766
c1ccc2[nH]c(CCOc3ccc(Oc4ccc(-c5ccn[nH]5)cc4)cc3)nc2c1 [Example 45, 2-(2-{4-[4-(1H-pyrazol-5-yl)phenoxy]phenoxy}ethyl)-1H-benzimidazole] | 1.7 | ≥ 5000
c1cc(-c2ccc(Oc3ccc(OCc4cc[nH]n4)cc3)cc2)[nH]n1 [Example 46, 3-({4-[4-(1H-pyrazol-5-yl)phenoxy]phenoxy}methyl)-1H-pyrazole] | 6.1 | 4900
c1cnc2c(c1)CCC2Oc1ccc(Oc2ccc(-c3ccn[nH]3)cc2)cc1 (stereo not shown) [Example 47, 7-{4-[4-(1H-pyrazol-5-yl)phenoxy]phenoxy}-6,7-dihydro-5H-cyclopenta[b]pyridine] | 82.4 | ≥ 5000
CC(Oc1ccc(Oc2ccc(-c3ccn[nH]3)cc2)cc1)c1ccncc1 (stereo not shown) [Example 48, 4-(1-{4-[4-(1H-pyrazol-5-yl)phenoxy]phenoxy}ethyl)pyridine] | 16.9 | 3920
c1cc(-c2ccc(Oc3ccc(OCc4cnc5cc[nH]c5c4)cc3)cc2)[nH]n1 [Example 49, 6-({4-[4-(1H-pyrazol-5-yl)phenoxy]phenoxy}methyl)-1H-pyrrolo[3,2-b]pyridine] | 1.2 | 3140
c1cnn(CCCOc2ccc(Oc3ccc(-c4ccn[nH]4)cc3)cc2)c1 [Example 50, 1-(3-{4-[4-(1H-pyrazol-5-yl)phenoxy]phenoxy}propyl)-1H-pyrazole] | 1.2 | 2110
c1cc(-c2ccc(Oc3ccc(OCc4ccno4)cc3)cc2)[nH]n1 [Example 52, 5-({4-[4-(1H-pyrazol-5-yl)phenoxy]phenoxy}methyl)isoxazole] | 4.1 | 2600
c1cc(-c2ccc(Oc3ccc(OCc4cocn4)cc3)cc2)[nH]n1 [Example 54, 4-({4-[4-(1H-pyrazol-5-yl)phenoxy]phenoxy}methyl)-1,3-oxazole] | 4.2 | ≥ 5000
Cn1ncnc1COc1ccc(Oc2ccc(-c3ccn[nH]3)cc2)cc1 [Example 56, 1-methyl-5-({4-[4-(1H-pyrazol-5-yl)phenoxy]phenoxy}methyl)-1H-1,2,4-triazole] | 0.6 | ≥ 5000
C[C@H](Oc1ccc(Oc2ccc(-c3ccn[nH]3)cc2)cc1)c1ccccn1 [Example 58, 2-[(1S)-1-{4-[4-(1H-pyrazol-5-yl)phenoxy]phenoxy}ethyl]pyridine] | 44 | ≥ 5000
c1ccc(COc2ccc(Oc3ccc(-c4ccn[nH]4)cc3)cc2)cc1 [Example 62, 5-{4-[4-(benzyloxy)phenoxy]phenyl}-1H-pyrazole] | 142 | ≥ 5000
c1cc(-c2ccc(Oc3ccc(OCc4ccoc4)cc3)cc2)[nH]n1 [Example 63, 5-{4-[4-(3-furylmethoxy)phenoxy]phenyl}-1H-pyrazole] | 52.9 | ≥ 5000
c1ccc2sc(COc3ccc(Oc4ccc(-c5ccn[nH]5)cc4)cc3)nc2c1 [Example 64, 2-({4-[4-(1H-pyrazol-5-yl)phenoxy]phenoxy}methyl)-1,3-benzothiazole] | 44.2 | ≥ 5000
c1ccc(CCOc2ccc(Oc3ccc(-c4ccn[nH]4)cc3)cc2)cc1 [Example 66, 5-{4-[4-(2-phenylethoxy)phenoxy]phenyl}-1H-pyrazole] | 959 | ≥ 5000
c1csc(CCOc2ccc(Oc3ccc(-c4ccn[nH]4)cc3)cc2)c1 [Example 68, 5-(4-{4-[2-(2-thienyl)ethoxy]phenoxy}phenyl)-1H-pyrazole] | 820 | ≥ 5000
c1cc(-c2ccc(Oc3ccc(OCc4ccsc4)cc3)cc2)[nH]n1 [Example 69, 5-{4-[4-(3-thienylmethoxy)phenoxy]phenyl}-1H-pyrazole] | 65.3 | ≥ 5000

Continued by falling IC50 (human LTA4 hydrolase), values first:

IC50 (human LTA4 hydrolase) [nM] | IC50 [1] [nM] | SMILES
42.7 | ≥ 5000 | C[C@@H](Oc1ccc(Oc2ccc(-c3ccn[nH]3)cc2)cc1)c1ccccn1 [Example 59, 2-[(1R)-1-{4-[4-(1H-pyrazol-5-yl)phenoxy]phenoxy}ethyl]pyridine]
12.9 | ≥ 5000 | Cn1ccc(COc2ccc(Oc3ccc(-c4ccn[nH]4)cc3)cc2)n1 [Example 65, 1-methyl-3-({4-[4-(1H-pyrazol-5-yl)phenoxy]phenoxy}methyl)-1H-pyrazole]
11.2 | ≥ 5000 | Cc1ncsc1CCOc1ccc(Oc2ccc(-c3ccn[nH]3)cc2)cc1 [Example 67, 4-Methyl-5-(2-{4-[4-(2H-pyrazol-3-yl)-phenoxy]-phenoxy}-ethyl)-thiazole]
11 | ≥ 5000 | Cn1nc(COc2ccc(Oc3ccc(-c4ccn[nH]4)cc3)cc2)cc1-c1ccco1 [Example 57, 5-(2-furyl)-1-methyl-3-({4-[4-(1H-pyrazol-5-yl)phenoxy]phenoxy}methyl)-1H-pyrazole]
7.6 | ≥ 5000 | c1cc(-c2ccc(Oc3ccc(OCc4cnc5[nH]ccc5c4)cc3)cc2)[nH]n1 [Example 39, 5-({4-[4-(1H-pyrazol-5-yl)phenoxy]phenoxy}methyl)-1H-pyrrolo[2,3-b]pyridine]
7 | 2500 | c1cc(-c2ccc(Oc3ccc(OCCc4cn[nH]c4)cc3)cc2)[nH]n1 [Example 55, 4-(2-{4-[4-(1H-pyrazol-5-yl)phenoxy]phenoxy}ethyl)-1H-pyrazole]
6 | 4500 | c1cc(-c2ccc(Oc3ccc(OCc4cn5ccsc5n4)cc3)cc2)[nH]n1 [Example 36, 6-({4-[4-(1H-pyrazol-5-yl)phenoxy]phenoxy}methyl)imidazo[2,1-b][1,3]thiazole]
4 | 3110 | CC(CCOc1ccc(Oc2ccc(-c3ccn[nH]3)cc2)cc1)n1cccn1 (stereo not shown) [Example 51, 1-(1-methyl-3-{4-[4-(1H-pyrazol-5-yl)phenoxy]phenoxy}propyl)-1H-pyrazole]
3.9 | 1780 | c1cc(COc2ccc(Oc3ccc(-c4ccn[nH]4)cc3)cc2)ccn1 [Example 35, 4-({4-[4-(1H-pyrazol-5-yl)phenoxy]phenoxy}methyl)pyridine]
3.9 | ≥ 5000 | Cc1nc(COc2ccc(Oc3ccc(-c4ccn[nH]4)cc3)cc2)co1 [Example 60, 2-methyl-4-({4-[4-(1H-pyrazol-5-yl)phenoxy]phenoxy}methyl)-1,3-oxazole]
3.7 | ≥ 5000 | c1ccn2cc(COc3ccc(Oc4ccc(-c5ccn[nH]5)cc4)cc3)nc2c1 [Example 53, 2-({4-[4-(1H-pyrazol-5-yl)phenoxy]phenoxy}methyl)imidazo[1,2-a]pyridine]
1.4 | 1120 | Cn1nccc1COc1ccc(Oc2ccc(-c3ccn[nH]3)cc2)cc1 [Example 61, 1-methyl-5-({4-[4-(1H-pyrazol-5-yl)phenoxy]phenoxy}methyl)-1H-pyrazole]
1.3 | 1910 | c1ccc2c(c1)ncn2CCOc1ccc(Oc2ccc(-c3ccn[nH]3)cc2)cc1 [Example 43, 1-(2-{4-[4-(1H-pyrazol-5-yl)phenoxy]phenoxy}ethyl)-1H-benzimidazole]
0.3 | 172 | Cc1nccn1CCOc1ccc(Oc2ccc(-c3ccn[nH]3)cc2)cc1 [Example 42, 5-(4-{4-[2-(2-methyl-1H-imidazol-1-yl)ethoxy]phenoxy]phenyl)-1H-pyrazole]
0.2 | 673 | c1ccc2[nH]c(NCCOc3ccc(Oc4ccc(-c5ccn[nH]5)cc4)cc3)nc2c1 [Example 41, N-(2-{4-[4-(1H-pyrazol-5-yl)phenoxy]phenoxy}ethyl)-1H-benzimidazol-2-amine]
